Data published in US20040067547A1, “Rapid method for detecting micro-organisms and evaluating antimicrobial activity” (priority 1998, published 2004).

Tested on: Streptococcus pneumoniae
Experiment: Antibiotic sensitivity testing by zeta potential measurement (ZETASIZER 2000)
Type: cell-based
Conditions: about 10^5 cells in growth medium with penicillin at 0.01 g/ml, incubated at 37° C. for 3 h; about 0 mV = dead cells, untreated −27.9 mV
Protocol: The following Example illustrates a particular embodiment of the invention: Streptococcus pneumoniae was grown for about 4 h in laked horse blood medium. Aliqouts, representing about 10^5 cells, were transferred to two tubes containing growth medium: one of these also contained penicillin at 0.01 g/ml. The zeta potential of both samples was measured using a ZETASIZER 2000 (RTM) from Malvern Instruments. The tubes were incubated at 37° C. for 3 h, and the zeta potential of each measured again. […] There is a clear difference in these profiles. In both Figures, the peak at 0 mV represents dead cells. The zeta potential of all dead micro-organisms is close to 0 mV: without wishing to be bound by a particular theory, it is believed that these changes are brought about by the vacuolation of the cells, resulting in the zeta potential decaying to about 0 mv. The other peak in FIG. 4 is believed also to be cells of S pneumoniae, but which are […].

penicillin
Mean Zeta Potential for S pneumoniae: −0.3 mV
